Test results reported in US20250179028A1, “ACRYLAMIDE COMPOUNDS” (NRG THERAPEUTICS LTD, priority 2022, published 2025).
Converted amounts (≈) assume the structure as drawn. Like-named read-outs stand apart in the source and are kept apart here.

Legend:
mPTP [1] = assay: mPTP activity (Ca2+ retention) assay in isolated rat liver mitochondria; type: biochemical; settings: isolated rat liver mitochondria; average value from multiple experiments (n ≥ 2)
How it was run: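 Freshly isolated female Sprague Dawley rat liver mitochondria were energised with succinate and rotenone in pH 7.4 buffer with Fluo5N, then pre-incubated 10 min at RT with compound (30 μM to 1 nM final) before a 75 μM CaCl2 bolus. The IC50 used 10-min fluorescence, normalised to DMSO and 5 μM cyclosporin A.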

mPTP [2] = assay: mPTP activity assay in isolated rat brain mitochondria; type: biochemical; settings: isolated rat brain mitochondria
Experimental: mPTP activity was measured in brain mitochondria freshly isolated from female Sprague Dawley (250 to 300 gram) rats. Anaesthetised rats were perfused in-situ with ˜40 ml cold Dulbecco's Phosphate Buffered Saline (DPBS), then brains dissected and transferred into 30 ml Isolation Buffer (225 mM mannitol, 75 mM sucrose, 1 mM EGTA, adjusted to pH 7.4 with 1 M NaOH). The brain was minced using tweezers and a scalpel into ˜5 mm pieces then transferred into a 50 ml Potterton Dounce homogenization tube on ice containing 10 ml ice-cold isolation buffer (as above with addition of Complete Protease inhibitor; 1 tablet per 50 ml buffer).
Homogenisation was carried out using a […] pestle at 1800 rpm. The slurry was centrifuged at 2000 g for 10 min at 4° C., then the supernatant centrifuged at 12,000 g for 9 min. The pellet was resuspended with a dounce homogeniser in isolation buffer as above but with the addition of 0.02% digitonin, centrifuged at 12,000 g for 11 min and finally resuspended in 5 ml modified isolation buffer (as above but with EGTA reduced to 0.1 mM).
Test compounds were prepared in 384 well polypropylene assay plates as described above for the liver mitochondria assay. A stock mitochondria/Fluo5N assay solution was prepared in 5.6 ml assay buffer (120 mM mannitol, 40 mM MOPS, 5 mM KH2PO4, 60 mM KCl, 10 mM pyruvate, 2 mM malate, 2 mM MgCl2, 20 μM ADP, 1.26 μM oligomycin A, adjusted to pH 7.4) supplemented with Fluo5N pentapotassium salt (2 μM) and 1 ml mitochondria suspension, then transferred (15 μl) into the assay plate containing test compounds and incubated for 10 min at RT. Assay plates were then transferred to a FLIPR Tetra plate reader (Molecular Devices). Dye fluorescence was then measured every 3 sec for a total of 10 min. After 12 sec, a 2.5 μl bolus of Ca2+ (75 μM) was added from a source plate containing 675 μM CaCl2) in FLIPR assay buffer. IC50 values for test compounds were calculated using the fluorescence value collected at the 10 min timepoint with % inhibition calculated using the DMSO control and cyclosporin A values at […].

[3] = PBS and FaSSIF solubility; type: physicochemical; settings: kinetic from dmso stock
How it was run: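 Solubility was measured from 10 mM DMSO stocks diluted into FaSSIF or PBS pH 7.4, in duplicate, then shaken at 1100 rpm for 2 hr at 25 °C. Filtrates were quantified by LC-MS/MS against an internal standard and a known-concentration standard.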

[4] = Hepatocyte clearance assay, rat; type: in vitro ADME; settings: cryopreserved primary rat hepatocytes, average value from two experiments, read-out: Rat heps Clint
Experimental: (§1) In vitro clearance studies were performed in primary rat and human hepatocytes (BiolVT). Vials of cryopreserved rat or human hepatocytes were thawed in a 37° C. water bath for 2 min. Cells were transferred into thawing medium (Williams' Medium E containing 30% Percoll, 1×GlutaMAX-1, 15 mM HEPES, 5% fetal bovine serum (FBS), 4 μg/ml insulin, 1 μM dexamethasone), centrifuged at 100 g for 10 min then resuspended in culture medium (Leibovitz's L-15 Medium) at a concentration of 0.5×10^6 viable cells/mL (number of viable cells assessed using AO/PI staining). Hepatocytes (198 μL) were transferred into wells of a 96-well non-coated plate and placed in a 37° C. incubator for 10 min. Test compound solutions were prepared from 10 mM stocks in DMSO, diluted to 100 μM in 50% (v/v in water) acetonitrile. Test compound samples (2 μl) were added to each well of hepatocytes and incubated at 37° C. Samples (25 μl) were collected at t=0, 15, 30, […] and 120 min, mixed with 6 volumes (150 μl) of acetonitrile containing internal standard (100 nM alprazolam, 200 nM caffeine and 100 nM tolbutamide), vortexed for 5 min and centrifuged for 45 min at 3220 g. An aliquot of supernatant (100 μL) was diluted with 100 μL ultra-pure water, and the mixture was used for LC/MS/MS analysis. All incubations were performed in duplicate. Peak areas were determined from extracted ion chromatograms. The slope value, k, was determined by linear regression of the natural logarithm of the remaining percentage of the parent drug vs. incubation time curve. The in vitro half-life (in vitro t½) was determined from the slope value: in vitro t½=0.693/k. Conversion of the in vitro t½ (in min) into the in vitro intrinsic clearance (in vitro CLint, in μL/min/1×10^6 cells) was done using the following equation (mean of duplicate determinations):
(§2) [formula] • V=incubation volume (0.2 mL) • N=number of hepatocytes per well (0.1×10^6 cells).

[5] = Hepatocyte clearance assay, human; type: in vitro ADME; settings: cryopreserved primary human hepatocytes, average value from two experiments, read-out: Human heps Clint
Experimental: as §1, §2

CYP2D6 = CYP2D6 (Homo sapiens (Human), UniProt P10635); assay: Cytochrome P450 CYP2D6 inhibition in human liver microsomes; type: in vitro ADME; settings: probe dextromethorphan 2 µM (dextrorphan formation); 1 uM test compound, human liver microsomes; average value from two experiments; negative values = no effective inhibition
How it was run: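 Human liver microsomes (0.2 mg/mL) with 2 μM dextromethorphan in 100 mM PBS, test compound at 1 μM or 0.1-30 μM, 15 min preincubation then NADPH-started reaction for 20 min at 37° C, in duplicate. Dextrorphan formation by UPLC-MS/MS; IC50 from % decrease versus uninhibited control.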

[6] = Microsomal clearance assay; type: in vitro ADME; settings: rat liver microsomes; average value from two experiments
Experimental: The microsomal stability of test compounds was evaluated using rat liver microsomes (BiolVT) with and without the cofactors nicotinamide adenine dinucleotide phosphate (NADPH) and undine-diphosphate-glucuronic acid (UDPGA). Reactions were performed in a final volume of 250 μl pre-warmed (37° C.) 100 mM phosphate buffer containing 5 mM MgCl2, 0.025 mg/ml alamethicin, and 0.5 mg/ml rat liver microsomes. NADPH and UDPGA were included at 1 mM and 2 mM respectively, where appropriate. Reactions were started with the addition of 1 μM (final concentration) test compound. Verapamil was used as the positive control. Solutions were incubated in a water bath at 37° C. and aliquots collected at 0.5, 5, 15, 30 and 60 min. Reactions were stopped by the addition of 5 volumes of cold acetonitrile with internal standards (200 nM caffeine and 100 nM tolbutamide). Samples were centrifuged at 3220 g for 40 min. An aliquot of supernatant was diluted 1:1 In ultra-pure H2O, then used for LC-MS/MS analysis. Peak areas were determined from extracted ion chromatograms. The slope value, k, was determined by linear regression of the natural logarithm of the remaining percentage of the parent drug vs. incubation time curve. The in vitro half-life (in vitro t½) was determined from the slope value: in vitro t½=0.693/k. Conversion of the in vitro t½ (min) into the in vitro intrinsic clearance (in vitro CLint, in μL/min/mg protein) was done using the following equation (mean of duplicate determinations): […]

[7] = fasted state simulated intestinal fluid (FaSSIF), fassif, Fasted state simulated intestinal fluid, 2 hr at 25° C., read-out: Solubility FaSSIF
[8] = aqueous buffer, PBS pH 7.4, 2 hr at 25° C., read-out: Solubility PBS (pH 7.4)

Sequence of CYP2D6 (P10635 whole entry): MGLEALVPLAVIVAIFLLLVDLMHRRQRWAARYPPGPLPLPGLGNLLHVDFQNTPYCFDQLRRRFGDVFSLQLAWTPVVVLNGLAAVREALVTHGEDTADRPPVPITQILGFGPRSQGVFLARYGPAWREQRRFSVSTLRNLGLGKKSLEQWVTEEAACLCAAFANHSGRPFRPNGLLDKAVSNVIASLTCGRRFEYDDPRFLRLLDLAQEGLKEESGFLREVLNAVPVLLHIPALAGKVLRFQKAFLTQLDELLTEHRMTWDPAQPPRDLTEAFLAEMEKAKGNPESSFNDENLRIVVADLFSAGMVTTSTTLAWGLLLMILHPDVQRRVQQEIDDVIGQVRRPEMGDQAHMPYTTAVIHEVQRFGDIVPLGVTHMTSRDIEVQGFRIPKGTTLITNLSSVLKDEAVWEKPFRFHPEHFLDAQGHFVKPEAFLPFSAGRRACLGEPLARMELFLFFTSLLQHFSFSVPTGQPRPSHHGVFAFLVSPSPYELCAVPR

Row | SMILES | mPTP Rat liver pIC50 (mPTP [1]) | mPTP Rat brain pIC50 (mPTP [2]) | solubility at 2 h [3, 7] [µM] | hepatocyte CLint at 1 µM [4] [µL/min/1e6 cells] | hepatocyte CLint at 1 µM [5] [µL/min/1e6 cells] | inhibition at 20 min, 1 µM (CYP2D6) [%] | solubility at 2 h [3, 8] [µM] | microsomal CLint at 1 µM [6] [µL/min/mg]
1 | COc1cc(C)c(NC(=O)/C=C/c2cc3[nH]nc(Cl)c3cc2F)c(C)n1 [Example 96, (2E)-3-(3-chloro-5-fluoro-1H-indazol-6-yl)-N-(6-methoxy-2,4-dimethylpyridin-3-yl)prop-2-enamide] | 7.6 | 7.8 | 14 (≈ 5.25 µg/mL) | 13 | 6 |  |  | 
2 | Cc1ncc(F)c(C)c1NC(=O)/C=C/c1ccc2c(C)n[nH]c2c1 [Example 113, (2E)-N-(5-fluoro-2,4-dimethylpyridin-3-yl)-3-(3-methyl-1H-indazol-6-yl)prop-2-enamide] | 7.7 | 7.4 | 8 (≈ 2.59 µg/mL) | 3 | 3 |  |  | 
3 | Cc1c(F)cccc1NC(=O)/C=C/c1ccc2nn[nH]c2c1 [Example 1, (E)-3-(1H-benzo[d][1,2,3]triazol-6-yl)-N-(3-fluoro-2-methylphenyl)acrylamide] | 7.3 |  |  |  |  | -2.11 | 22.2 (≈ 6.58 µg/mL) | 106
4 | CC1Cc2ccccc2C1NC(=O)/C=C/c1ccc2c(c1)NC(=O)C2 (stereo not shown) [Example 21, (E)-N-(2-methyl-2,3-dihydro-1H-inden-1-yl)-3-(2-oxoindolin-6-yl)acrylamide] | 6.1 |  |  |  |  | 0.91 | 26 (≈ 8.64 µg/mL) | 38
5 | CCO[C@H]1Cc2ccccc2[C@@H]1NC(=O)/C=C/c1ccc2c(C)n[nH]c2c1 [Example 69, (E)-N-((1S,2S)-2-ethoxy-2,3-dihydro-1H-inden-1-yl)-3-(3-methyl-1H-indazol-6-yl)acrylamide] | 7.7 | 7.6 | 181 (≈ 65.3 µg/mL) | 73 | 17.9 |  |  | 
6 | Cc1c(F)cccc1NC(=O)/C=C/c1cc(F)c2c(c1)NC(=O)C2 [Example 18, (E)-N-(3-fluoro-2-methylphenyl)-3-(4-fluoro-2-oxoindolin-6-yl)acrylamide] | 6.0 |  |  |  |  | 1.2 | 1.11 (≈ 0.364 µg/mL) | 23
7 | Cc1n[nH]c2cc(/C=C/C(=O)N[C@H]3c4ccccc4C[C@@H]3OCCF)ccc12 [Example 68, (E)-N-((1S,2S)-2-(2-fluoroethoxy)-2,3-dihydro-1H-inden-1-yl)-3-(3-methyl-1H-indazol-6-yl)acrylamide] | 7.8 | 7.7 | 61.7 (≈ 23.4 µg/mL) | 34.9 | 12 |  |  | 
8 | COc1cc(C)c(NC(=O)/C=C/c2cc3[nH]nc(C)c3cc2F)c(C)n1 [Example 95, (2E)-3-(5-fluoro-3-methyl-1H-indazol-6-yl)-N-(6-methoxy-2,4-dimethylpyridin-3-yl)prop-2-enamide] | 7.6 | 7.9 | 76 (≈ 26.9 µg/mL) | 5 | 3 |  |  | 
9 | COc1cc(C)c(NC(=O)/C=C/c2cc3[nH]nc(C#N)c3cc2F)c(C)n1 [Example 98, (2E)-3-(3-cyano-5-fluoro-1H-indazol-6-yl)-N-(6-methoxy-2,4-dimethylpyridin-3-yl)prop-2-enamide] | 6.9 | 7.0 |  | 7 | 9 |  |  | 
10 | Cc1c(F)cncc1NC(=O)/C=C/c1ccc2c(C)n[nH]c2c1 [Example 110, (2E)-N-(5-fluoro-4-methylpyridin-3-yl)-3-(3-methyl-1H-indazol-6-yl)prop-2-enamide] | 7.1 | 6.7 |  | 307 | 45 |  |  | 
11 | Cc1n[nH]c2cc(/C=C/C(=O)N[C@H]3c4ccccc4C[C@@H]3OCC3COC3)ccc12 [Example 66, (E)-3-(3-methyl-1H-indazol-6-yl)-N-((1S,2S)-2-(oxetan-3-ylmethoxy)-2,3-dihydro-1H-inden-1-yl)acrylamide] | 7.2 | 7.3 |  | 36.1 | 25.4 |  |  | 
